The assay deals with low-density lipoprotein (LDL). In words: LDL oxidation (lipid peroxidation) assay of Cu-metallated APP proteins. The settings on record: for % of lipid peroxidation by control: Cu-metallated proteins, 0.5 mg/mL LDL, 24 hr, 37° C., control LDL in PBS alone = 100; for effect on lipid peroxidation (Cu-reducing) activity of the CuBD, in words: mutations incorporated into APP133-189. The format is biochemical. The procedure: Mutagenesis experiments were performed to test this. His147 and His151 were mutated to Asn, Tyr168 was mutated to Phe, and Met170 was mutated to Leu. These mutations were incorporated into APP133-189. Recombinant protein was expressed in Pichia pastoris as described above, and purified by standard chromatography methods. The identities of the purified proteins were verified by mass spectrometry. The Cu-reducing activity of the CuBD was tested in a lipid peroxidation assay.
Two different assays of metal mediated lipid peroxidation were utilized. The first assay involved measuring the oxidative activity of metallated proteins. This was determined by mixing dialyzed metallated or native protein at designated concentrations with 0.5 mg/mL low-density lipoprotein (LDL) for 24 hr (37° C.). Lipid peroxidation was measured using a lipid peroxidation assay kit (LPO 486, Oxis International Inc. Portland, Oreg.), as per kit instructions.
The control is LDL (0.5 mg/mL) in PBS buffer alone. […] APP133-189 induced strong lipid peroxidation (3-fold above background).

On to “His147Asn: APP133-189 with His147 mutated to Asn”, for which the “% of lipid peroxidation by control” value amounted to 87% and the “effect on lipid peroxidation (Cu-reducing) activity of the CuBD, in words” value is “abolished this activity”.

With “APP133-189: truncated version of the CuBD of APP, recombinant protein expressed in Pichia pastoris (CKFLHQERMDVCETHLHWHTVAKETCSEKSTNLHDYGMLLPCGIDKFRGVEFVCCPL; UniProt P05067 133-189, looked up, fragment)”, the “% of lipid peroxidation by control” value came to 312%. Further, the “lipid peroxidation above background” value (background = APP28-123 negative control) was 3 fold.

With “His151Asn: APP133-189 with His151 mutated to Asn”, the “% of lipid peroxidation by control” value is reported as 196% and the “effect on lipid peroxidation (Cu-reducing) activity of the CuBD, in words” value is reported as “affected the activity, but to a lesser extent”.

As for “Tyr168Phe: APP133-189 with Tyr168 mutated to Phe”, the “% of lipid peroxidation by control” value amounted to 111% and the “effect on lipid peroxidation (Cu-reducing) activity of the CuBD, in words” value is “significant effect on the activity”.

In the case of “Met170Leu: APP133-189 with Met170 mutated to Leu”, the “% of lipid peroxidation by control” value is listed as 142% and the “effect on lipid peroxidation (Cu-reducing) activity of the CuBD, in words” value is “significant effect on the activity”.
